According to ChEMBL document CHEMBL4330174, “Allosteric mGluR3 Modulators for the Treatment of Psychiatric Disorders” (ACS Med Chem Lett, 2019):

The compounds below were run against Metabotropic glutamate receptor 3 (Homo sapiens, UniProt Q14832) (assay: Positive allosteric modulation of human mGluR3 expressed in HEK293 cells assessed as increase in glutamate-induced calcium mobilization preincubated for 10 mins followed by glutamate addition and measured for 3 mins by Fluo4-AM dye based FLIPR assay).
Sequence of Metabotropic glutamate receptor 3 (Q14832 whole entry): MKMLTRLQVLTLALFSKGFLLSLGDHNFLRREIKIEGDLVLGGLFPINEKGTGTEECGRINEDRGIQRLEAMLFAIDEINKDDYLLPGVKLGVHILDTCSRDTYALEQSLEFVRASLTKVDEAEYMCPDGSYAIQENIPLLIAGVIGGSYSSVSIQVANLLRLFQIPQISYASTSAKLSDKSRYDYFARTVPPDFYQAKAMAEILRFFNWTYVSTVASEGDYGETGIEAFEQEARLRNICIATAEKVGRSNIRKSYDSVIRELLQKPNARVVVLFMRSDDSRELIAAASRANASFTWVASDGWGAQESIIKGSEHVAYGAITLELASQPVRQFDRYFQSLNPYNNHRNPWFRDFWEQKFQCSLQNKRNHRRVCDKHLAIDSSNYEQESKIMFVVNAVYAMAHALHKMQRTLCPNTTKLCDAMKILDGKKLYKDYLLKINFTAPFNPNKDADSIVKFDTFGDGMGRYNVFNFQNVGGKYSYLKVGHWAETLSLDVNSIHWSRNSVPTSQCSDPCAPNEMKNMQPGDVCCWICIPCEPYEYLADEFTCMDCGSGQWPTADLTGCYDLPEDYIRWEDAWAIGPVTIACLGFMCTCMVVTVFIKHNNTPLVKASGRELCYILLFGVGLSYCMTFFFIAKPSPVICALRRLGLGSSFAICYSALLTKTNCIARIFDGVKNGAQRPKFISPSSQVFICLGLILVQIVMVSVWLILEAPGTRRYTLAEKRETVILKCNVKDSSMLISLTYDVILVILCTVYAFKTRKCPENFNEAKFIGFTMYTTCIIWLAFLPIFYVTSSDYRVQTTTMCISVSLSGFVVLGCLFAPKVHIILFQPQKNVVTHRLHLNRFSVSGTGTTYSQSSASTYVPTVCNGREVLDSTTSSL
Assay type: functional, cell-based

Row | SMILES | EC50 [µM]
1 | COc1ccc2c(n1)C(=O)N(C)Cc1ccc(-c3ccc(F)nc3)cc1-2 | < 0.1
2 | CN1C(=O)c2cccn2-c2cc(-c3ccc(F)nc3)ccc2C12CCC2 | < 0.1
3 | COCn1cc2c(n1)C(=O)N(C)Cc1ccc(-c3ccc(F)cn3)cc1-2 | 0.1 to 1
4 | CCn1cc2c(n1)C(=O)N(C)Cc1ccc(-c3cccnc3C)cc1-2 | 0.1 to 1

The next lines start with the values.

Row | EC50 [µM] | SMILES
5 | < 0.1 | CN1C(=O)c2ncccc2-c2cc(-c3ccc(F)nc3)ccc2C12CC2
6 | < 0.1 | CN1C(=O)c2ncccc2-c2cc(-c3ccc(F)cn3)ccc2C12CC2
7 | < 0.1 | COc1ccc2c(n1)C(=O)N(C)C1(CC1)c1ccc(-c3ccc(F)nc3)cc1-2
8 | < 0.1 | COCn1cc2c(n1)C(=O)N(C)C1(CC1)c1ccc(-c3ccc(F)nc3)cc1-2
